Test results reported in US8568997B2, “Detection system and uses therefor” (Dimerix Bioscience Pty Ltd., priority 2006, dated 2013).
Ends that are not written are not given here.

Experiments:
[1] = tested on: TRHR with OxR1; experiment: eBRET between TRHR/Rluc and barr2/Venus with OxR1 as IG3; assay type: cell-based
Protocol: (§1) Where antagonist was not preincubated, cells were treated with PBS instead for the same amount of time.
(§2) Cells were seeded in 6-well plates at a density of approximately 630,000 cells/well (HEK293FT) or approximately 150,000 cells/well (COS-7) and maintained at 37° C., 5% CO2 in Complete Media (DMEM containing 0.3 mg/ml glutamine, 100 IU/ml penicillin and 100 μg/ml streptomycin (Gibco)) supplemented with 10% fetal calf serum (FCS; Gibco). Transient transfections were carried out 24 h after seeding using GeneJuice (Novagen) or Metafectene (Biontex) according to manufacturer instructions. 24 h post-transfection, cells were washed with PBS, detached using 0.05% trypsin/0.53 mM EDTA, resuspended in HEPES-buffered phenol red free Complete Media containing 5% FCS and added to a poly-L-lysine-coated white microplate (Nunc). 48 h post-transfection, eBRET assays were carried out following pre-incubation of cells with EnduRen™ (Promega) at a final concentration of 30-40 μM, at 37° C., 5% CO2 for 2 h. For original BRET studies, the HEPES-buffered phenol red free Complete Media was replaced with PBS and coelenterazine h (Molecular Probes) added to a final concentration of 5 μM immediately prior to commencing the assay. […] Filtered light emissions were sequentially measured for 3-5 s in each of the ‘donor wavelength window’ (400-475 nm) and ‘acceptor wavelength window’ (>500 nm for EGFP or 520-540 nm for EYFP, Topaz (TYFP) or Venus). The BRET signal observed between interacting proteins is normalized by subtracting the background BRET ratio. […] In the following examples, the first calculation will be used, unless the signal is described as the ligand-induced BRET ratio'.
Cells not pretreated with antagonist were pretreated with PBS instead for the same amount of time.

[2] = tested on: TRHR with OxR2 (thyrotropin releasing hormone receptor/orexin receptor hetero-dimer/-oligomer); experiment: eBRET/BRET between TRHR/Rluc (or Rluc8) and labelled beta-arrestin with OxR2 co-expressed as IG3; assay type: cell-based
Protocol: (§3) eBRET measurements at 37 C were carried out on HEK293 cells transiently co-expressing TRHR/Rluc and barr2/Venus with either pcDNA3, orexin receptor 2 (OxR2), CXC chemokine receptor 2 (CXCR2), hemagglutin epitope-tagged melanocortin receptor 3 or 4 (HA-MC3R or HA-MC4R), or dopamine D2 receptor long form (D2LR) or short form (D2SR) following the treatment of each with their respective ligands.
(§4) Phosphate-buffered saline (PBS) was used as a vehicle control.
as §1, §4
Sigmoidal dose response curves were plotted using Prism (GraphPad), either assuming a Hill slope of 1 or allowing for variable slope.
Phosphate-buffered saline (PBS) was added to the first two rows and the last two rows of the 96-well plate (48 wells in total) as a vehicle control. […] Data presented as fluorescence/luminescence.
as §2
In this case, data are shown as ‘fluorescence/luminescence’ being the ratio of light emission through the ‘acceptor wavelength window’ over the 400-475 nm emission for a particular cell sample. Unless otherwise stated, BRET signals were measured in 96-well microplates.

[3] = molecular target: T1, CCR5 with CCR2 (Homo sapiens, UniProt P41597+P51681); experiment: eBRET between CCR5(5)TYFP and barr2/Rluc with CCR2 as IG3; assay type: cell-based; conditions: CCR5(5)TYFP + barr2/Rluc + CCR2
T1 construct: expressed in transfected cells; host or cells: HEK293
T1 sequence (P51681 whole entry, species assumed): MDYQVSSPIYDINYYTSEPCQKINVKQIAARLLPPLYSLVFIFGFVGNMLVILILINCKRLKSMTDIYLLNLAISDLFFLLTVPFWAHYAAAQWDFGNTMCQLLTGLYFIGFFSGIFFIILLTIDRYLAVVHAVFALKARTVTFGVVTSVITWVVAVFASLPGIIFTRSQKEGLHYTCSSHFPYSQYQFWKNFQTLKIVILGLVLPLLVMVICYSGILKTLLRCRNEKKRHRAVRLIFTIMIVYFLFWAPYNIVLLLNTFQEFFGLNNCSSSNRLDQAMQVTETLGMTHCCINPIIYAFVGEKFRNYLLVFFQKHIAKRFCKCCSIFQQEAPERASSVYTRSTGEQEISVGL
T1 sequence (P41597 whole entry, species assumed): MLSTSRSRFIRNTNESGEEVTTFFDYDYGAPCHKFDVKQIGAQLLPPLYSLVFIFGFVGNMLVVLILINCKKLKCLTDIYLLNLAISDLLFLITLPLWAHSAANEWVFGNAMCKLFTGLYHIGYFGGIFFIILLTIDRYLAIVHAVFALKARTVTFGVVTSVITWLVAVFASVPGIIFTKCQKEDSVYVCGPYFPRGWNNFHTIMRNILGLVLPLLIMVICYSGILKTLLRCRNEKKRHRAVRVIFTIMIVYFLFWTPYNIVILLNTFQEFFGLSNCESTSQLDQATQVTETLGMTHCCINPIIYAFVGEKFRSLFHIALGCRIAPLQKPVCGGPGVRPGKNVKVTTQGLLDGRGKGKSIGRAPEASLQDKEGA
Protocol: (§5) Ligand treatments were either monocyte chemoattractant protein 1 (MCP1; CCR2 selective ligand), macrophage inflammatory protein 1b (MIP1b; CCR5 selective ligand), or both MCP1 and MIP1b combined. Phosphate-buffered saline (PBS) was used as a vehicle control.
BRET measurements at 37 C were carried out on HEK293 cells transiently co-expressing CCR5(5)TYFP (contains a 5 amino acid linker between CCR5 and TYFP), barr2/Rluc and CCR2 treated with increasing doses of monocyte chemoattractant protein 1 (MCP1; CCR2 selective ligand). A sigmoidal dose response curve was plotted using Prism (GraphPad) allowing for variable slope.
Cells were seeded in 6-well plates at a density of approximately 630,000 cells/well (HEK293FT) or approximately 150,000 cells/well (COS-7) and maintained at 37° C., 5% CO2 in Complete Media (DMEM containing 0.3 mg/ml glutamine, 100 IU/ml penicillin and 100 μg/ml streptomycin (Gibco)) supplemented with 10% fetal calf serum (FCS; Gibco). […] BRET measurements were taken at 37° C. using the Victor Light plate reader with Wallac 1420 software (Perkin-Elmer). Filtered light emissions were sequentially measured for 3-5 s in each of the ‘donor wavelength window’ (400-475 nm) and ‘acceptor wavelength window’ (>500 nm for EGFP or 520-540 nm for EYFP, Topaz (TYFP) or Venus). […]

[4] = molecular target: T2, CC chemokine receptor 5 (CCR5) (Homo sapiens, UniProt P51681); experiment: eBRET between CCR5(5)TYFP and barr2/Rluc without IG3 (pcDNA3); assay type: cell-based; conditions: CCR5(5)TYFP + barr2/Rluc + pcDNA3
T2 construct: expressed in transfected cells; host or cells: HEK293
T2 sequence (P51681 whole entry, species assumed): as the sequence (P51681 whole entry, species assumed) above
Protocol: as §5
(§6) Cells were seeded in 6-well plates at a density of approximately 630,000 cells/well (HEK293FT) or approximately 150,000 cells/well (COS-7) and maintained at 37° C., 5% CO2 in Complete Media (DMEM containing 0.3 mg/ml glutamine, 100 IU/ml penicillin and 100 μg/ml streptomycin (Gibco)) supplemented with 10% fetal calf serum (FCS; Gibco). Transient transfections were carried out 24 h after seeding using GeneJuice (Novagen) or Metafectene (Biontex) according to manufacturer instructions. 24 h post-transfection, cells were washed with PBS, detached using 0.05% trypsin/0.53 mM EDTA, resuspended in HEPES-buffered phenol red free Complete Media containing 5% FCS and added to a poly-L-lysine-coated white microplate (Nunc). 48 h post-transfection, eBRET assays were carried out following pre-incubation of cells with EnduRen™ (Promega) at a final concentration of 30-40 μM, at 37° C., 5% CO2 for 2 h. For original BRET studies, the HEPES-buffered phenol red free Complete Media was replaced with PBS and coelenterazine h (Molecular Probes) added to a final concentration of 5 μM immediately prior to commencing the assay. BRET measurements were taken at 37° C. using the Victor Light plate reader with Wallac 1420 software (Perkin-Elmer). Filtered light emissions were sequentially measured for 3-5 s in each of the ‘donor wavelength window’ (400-475 nm) and ‘acceptor wavelength window’ (>500 nm for EGFP or 520-540 nm for EYFP, Topaz (TYFP) or Venus). The BRET signal observed between interacting proteins is normalized by subtracting the background BRET ratio. […]

[5] = tested on: thyrotropin releasing hormone receptor (TRHR); experiment: eBRET/BRET beta-arrestin recruitment to TRHR/Rluc without IG3 (pcDNA3) in HEK293 cells; assay type: cell-based
Protocol: as §3
Ligand treatments were either OxA or TRH only or both OxA and TRH combined. Phosphate-buffered saline (PBS) was used as a vehicle control.
Ligand treatments were either OxA or TRH only. Phosphate-buffered saline (PBS) was used as a vehicle control.
BRET measurements at 37 C were carried out on HEK293 cells transiently co-expressing TRHR/Rluc, barr2/Venus and pcDNA3 with increasing doses of TRH. Sigmoidal dose response curves were plotted using Prism (Graph Pad), either assuming a Hill slope of 1 or allowing for variable slope. The EC50 and Hill slope values for the variable slope curve are included in a table in the graph.
TRHR is IG1, Rluc is RC1, barr1 is IG2, EGFP is RC2 and OxR2 is IG3. The same amount of EGFP/barr1 (IG2-RC2) is transfected for each experiment.
Cells were seeded in 6-well plates at a density of approximately 630,000 cells/well (HEK293FT) or approximately 150,000 cells/well (COS-7) and maintained at 37° C., 5% CO2 in Complete Media (DMEM containing 0.3 mg/ml glutamine, 100 IU/ml penicillin and 100 μg/ml streptomycin (Gibco)) supplemented with 10% fetal calf serum (FCS; Gibco). Transient transfections were carried out 24 h after seeding using GeneJuice (Novagen) or Metafectene (Biontex) according to manufacturer instructions. 24 h post-transfection, cells were washed with PBS, detached using 0.05% trypsin/0.53 mM EDTA, resuspended in HEPES-buffered phenol red free Complete Media containing 5% FCS and added to a poly-L-lysine-coated white microplate (Nunc). 48 h post-transfection, eBRET assays were carried out following pre-incubation of cells with EnduRen™ (Promega) at a final concentration of 30-40 μM, at 37° C., 5% CO2 for 2 h. For original BRET studies, the HEPES-buffered phenol red free Complete Media was replaced with PBS and coelenterazine h (Molecular Probes) added to a final concentration of 5 μM immediately prior to commencing the assay. BRET measurements were taken at 37° C. using the Victor Light plate reader with Wallac 1420 software (Perkin-Elmer). Filtered light emissions were sequentially measured for 3-5 s in each of the ‘donor wavelength window’ (400-475 nm) and ‘acceptor wavelength window’ (>500 nm for EGFP or 520-540 nm for EYFP, Topaz (TYFP) or Venus). The BRET signal observed between interacting proteins is normalized by subtracting the background BRET ratio. This can be done in one of two ways (see Pfleger et al. (2006) Cell Signal 18, 1664-1670; Pfleger et al. (2006) Nat Protoc 1, 336-344): 1) the ratio of light emission through the ‘acceptor wavelength window’ over the 400-475 nm emission for a cell sample containing only the donor construct is subtracted from the same ratio for a sample containing the interacting acceptor and donor fusion proteins; 2) the ratio of light emission through the ‘acceptor wavelength window’ over the 400-475 nm emission for a cell sample treated with vehicle is subtracted from the same ratio for a second aliquot of the same cell sample treated with ligand. In the following examples, the first calculation will be used, unless the signal is described as the ligand-induced BRET ratio'.

[6] = tested on: TRHR335 (truncated TRHR) with OxR2; experiment: eBRET/BRET between TRHR335/Rluc and labelled beta-arrestin with OxR2 as IG3; assay type: cell-based; conditions: TRHR335/Rluc + EGFP/barr1 + OxR2
[7] = tested on: TRHR335 with TRHR; experiment: eBRET between TRHR335/Rluc and EGFP/barr1 with TRHR as IG3; assay type: cell-based
Protocol: Ligand treatments were either OxA or TRH only.
as §6, with “For original BRET studies, the HEPES-buffered phenol red free Complete Media was replaced with PBS and coelenterazine h (Molecular Probes) added to a final concentration of 5 μM immediately prior to commencing the assay.” left out, “Venus).” for “Venus). The BRET signal observed between interacting proteins is normalized by subtracting the background BRET ratio.”

[8] = cited from earlier work
[9] = 10^−6M antagonist approx. 40 minutes before 10^−6M OxA
[10] = 10^−6M antagonist approx. 40 minutes before 10^−6M TRH and OxA

Cc1nc2ccc(NC(=O)Nc3ccnc4cccnc34)cc2o1.Cl [SB-334867-A, 1-(2-methylbenzoxazol-6-yl)-3-[1,5]naphthyridin-4-yl urea hydrochloride]
effect of antagonist pretreatment on OxA-induced eBRET signal [1, 9]: reduced
effect of antagonist pretreatment on TRH + OxA-induced eBRET signal [1, 10]: reduced
effect of antagonist pretreatment on OxA-induced eBRET signal [2, 9]: not affected
effect of antagonist pretreatment on TRH + OxA-induced eBRET signal [2, 10]: did not differ

MCP1: Monocyte chemoattractant protein 1 (CCR2 selective ligand)
eBRET signal [3]: able to produce a signal
eBRET signal [4]: no eBRET signal
effect of MCP1 addition on MIP1b-induced eBRET signal [4]: made no difference

OxA: Orexin A, orexin receptor modulator used as IG3 ligand (QPLPDCCRQKTCSCRLYELLHGAGNHAAGILTL; not fully specified; ends and bridges not checked; UniProt O43612 34-66, looked up)
eBRET signal ([1]; TRHR/Rluc + barr2/Venus + OxR1, agonist 10^−6M): small eBRET signal
cumulative eBRET signal ([5]; TRHR/Rluc + EGFP/barr1, 0 μg OxR2 DNA/well, 10^−6M OxA, 83 mins): no signal was recorded
effect of OxA on TRH-induced eBRET signal ([5]; TRHR/Rluc + EGFP/barr1 or EGFP/barr2, no OxR2, OxA present with TRH): no difference
eBRET signal ([5]; TRHR/Rluc + EGFP/barr (barr1, barr2 or barr1R169E), no OxR2): No increase in eBRET signal above baseline
eBRET signal ([2]; Example 3: TRHR/Rluc + barr2/Venus + OxR2, 10^−6M OxA, PBS pretreatment): eBRET signal was observed
time to reach eBRET signal ([2]; HEK293, TRHR/Rluc + barr2/Venus + OxR2, ligand 10^−6M): up to 30 minutes
eBRET signal ([2]; HEK293, TRHR/Rluc + barr2/Venus + OxR2, ligand 10^−6M, 37 C): 0.07-0.08
time to eBRET signal plateau ([2]; TRHR/Rluc + EGFP/barr1R169E + OxR2 (lower signal than EGFP/barr1)): ≤ 20 min
time to eBRET signal plateau ([2]; TRHR/Rluc + EGFP/barr1 or EGFP/barr2 + HA-OxR2): more than 10 minutes
time to eBRET signal plateau ([2]; TRHR/Rluc + EGFP/barr1 or EGFP/barr2 + OxR2): more than 10 minutes
dose-response Hill slopes ([2]; TRHR/Rluc + barr2/Venus + OxR2, coelenterazine h and EnduRen, FIG. 12): greater than 1
time to eBRET signal plateau [6]: about 20 minutes
eBRET signal [7]: no eBRET signal above baseline

CN1C(=O)C[C@@H](C(=O)N[C@@H](Cc2c[nH]cn2)C(=O)N2CCC[C@H]2C(N)=O)NC1=O.O.O.O.O [TA-0910, (−)-N—[(S)-hexahydro-1-methyl-2,6-dioxo-4-pyrimidinylcarbonyl]-L-histidyl-L-prolinamide tetrahydrate]
slow wave sleep (SWS) and rapid eye movement (REM) sleep ([8]; dose- and time-dependent manner): significantly reduced
cataplexy ([8]; in most of the animals studied): completely suppressed

B1: MIP1b: Macrophage inflammatory protein 1b (CCR5 selective ligand) (protein, UniProt P13236 24-92, looked up)
C-C motif chemokine 4: APMGSDPPTACCFSYTARKLPRNFVVDYYETSSLCSQPAVVFQTKRSKQVCADPSESWVQEYVYDLELN
eBRET signal [3]: produced a signal
eBRET signal [4]: robust signal
